This note sets out measurements from PubChem BioAssay (NCI).

Each structure is given as a SMILES string. Where “and” joins values, the source holds several entries; their conditions need not be identical. Equal values may be shown once.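 Results reflect a 48-hour exposure of cells in 96-well plates to compound at five concentrations. At the GI50, growth is halved. Definition used: TGI = concentration required for complete inhibition of growth.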

Some test systems named below: MDA-MB-231 breast; CAKI-1 renal; M14 melanoma; A498 renal; SNB-75 CNS; HCC-2998 colon; COLO 205 colon; HCT-15 colon; KM12 colon; SR leukemia.
What all share (assay): NCI-60 cell line screen, 48 h

For the compound `CC(C)=C1CCC(CN2CCOCC2)C1=O` (configuration not stated), the TGI in the assay on MDA-MB-231 breast turned out to be 31.5 µM; with CAKI-1 renal, 0.908 µM; in the assay with M14 melanoma it was 14.6 µM; with A498 renal, 52.3 µM; in the assay with SNB-75 CNS, 18 µM; with HCC-2998 colon it was 29.3 µM. For the same compound, the TGI in the assay with COLO 205 colon was 16.9 µM; in the assay with HCT-15 colon, 22 µM; in the assay on KM12 colon, more than 51.4 µM; with SR leukemia it was 11.2 µM.

Regarding `CC1=C(C#N)C(/C=C(\Cl)c2ccc(F)cc2)C(C#N)=C(C)N1`, the GI50 was 94.9 µM with MDA-MB-231 breast; more than 100 µM with CAKI-1 renal; more than 100 µM in the assay on M14 melanoma; more than 100 µM with A498 renal; 86.3 µM with SNB-75 CNS; more than 100 µM in the assay with HCC-2998 colon. Also, the GI50 in the assay with COLO 205 colon, in the assay on HCT-15 colon, in the assay on KM12 colon and in the assay with SR leukemia was more than 100 µM each time. The TGI in the assay with MDA-MB-231 breast, in the assay on CAKI-1 renal, with M14 melanoma, in the assay with A498 renal, in the assay on SNB-75 CNS and with HCC-2998 colon was more than 100 µM throughout. Further, the TGI with COLO 205 colon, with HCT-15 colon, in the assay with KM12 colon and in the assay with SR leukemia was more than 100 µM in each case.

Take `O=C(Oc1ccccc1)C(Br)C(Br)c1ccccc1` (configuration not stated): the GI50 in the assay on MDA-MB-231 breast is 14.4 µM; with CAKI-1 renal, 1.65 µM; with M14 melanoma it was 2.68 µM; in the assay with A498 renal, 10.5 µM; in the assay on SNB-75 CNS, 15.7 µM; in the assay on HCC-2998 colon, 11.8 µM. The GI50 in the assay with COLO 205 colon is 1.98 µM; with HCT-15 colon, 2.32 µM; in the assay with KM12 colon it was 1.93 µM; in the assay on SR leukemia, 1.93 µM. Moreover, the TGI with MDA-MB-231 breast was determined as 29.6 µM; in the assay on CAKI-1 renal, 3.06 µM; in the assay with M14 melanoma it was 7.51 µM; in the assay with A498 renal it was 22.4 µM; in the assay with SNB-75 CNS it was 30.1 µM; in the assay with HCC-2998 colon, 24.7 µM. Moreover, the TGI came out at 3.83 µM with COLO 205 colon, 6.24 µM in the assay on HCT-15 colon, 3.75 µM with KM12 colon and 5.5 µM with SR leukemia.

For `C/C(=N\NC(N)=S)c1sc(-n2nc(-c3ccccc3)cc2-c2ccccc2)nc1C`, the TGI with MDA-MB-231 breast, with CAKI-1 renal, in the assay with M14 melanoma, with A498 renal, with SNB-75 CNS and in the assay with HCC-2998 colon was more than 100 µM in each case. Moreover, the TGI in the assay with COLO 205 colon, with HCT-15 colon, with KM12 colon and in the assay with SR leukemia was more than 100 µM throughout.

As to `CN(C)CCCCCNc1c2ccccc2nc2cccc([N+](=O)[O-])c12`, the TGI is 0.00202 µM with MDA-MB-231 breast; 0.0158 µM in the assay on CAKI-1 renal; 0.00312 µM in the assay with M14 melanoma; 0.00758 µM with A498 renal; 0.00534 µM in the assay with SNB-75 CNS; 0.0126 µM with HCC-2998 colon. Besides, the TGI was 0.00173 µM in the assay on COLO 205 colon; 0.0725 µM in the assay with KM12 colon; 0.00697 µM and > 0.0278 µM in the assay on SR leukemia. The GI50 was 0.00237 µM in the assay with HCC-2998 colon; 0.00591 µM with COLO 205 colon; 0.00218 µM and 0.00274 µM in the assay with HCT-15 colon; 0.000559 µM in the assay on SR leukemia.

Take `COc1cc(NC(C)CCCNC(C)C)c2ncccc2c1OC` (configuration not stated): the GI50 was more than 100 µM with MDA-MB-231 breast; more than 100 µM with CAKI-1 renal; more than 100 µM in the assay with M14 melanoma; 0.416 µM in the assay with A498 renal; 20.5 µM in the assay on SNB-75 CNS; more than 100 µM in the assay on HCC-2998 colon. Besides, the GI50 in the assay on COLO 205 colon was 14 µM; with HCT-15 colon it was more than 100 µM; in the assay with KM12 colon, more than 100 µM; with SR leukemia it was 70.8 µM. The TGI in the assay on MDA-MB-231 breast, in the assay on CAKI-1 renal, in the assay on M14 melanoma, in the assay on A498 renal, in the assay on SNB-75 CNS and in the assay with HCC-2998 colon was more than 100 µM throughout. Besides, the TGI in the assay with COLO 205 colon was 39.1 µM; with HCT-15 colon, more than 100 µM; with KM12 colon, more than 100 µM; in the assay with SR leukemia it was more than 100 µM.

For the compound `CC(=O)O[C@H](C[C@H](C(C)C)N(C)C(=O)[C@@H](NC(=O)[C@H]1CCCCN1C)C(C)C)c1cccc(C(=O)N[C@@H](Cc2ccccc2)C[C@H](C)C(=O)O)n1`, the GI50 in the assay with MDA-MB-231 breast is 0.0332 µM; in the assay on CAKI-1 renal it was 0.0686 µM; in the assay on M14 melanoma, 0.0237 µM; in the assay on A498 renal, 0.0158 µM; in the assay with SNB-75 CNS, 0.00695 µM; in the assay on HCC-2998 colon, 0.0544 µM. The GI50 is 0.0279 µM with COLO 205 colon, 0.219 µM in the assay with HCT-15 colon, 0.0262 µM in the assay on KM12 colon and 0.00429 µM in the assay with SR leukemia. In addition, the TGI with MDA-MB-231 breast was 10.1 µM; with CAKI-1 renal, more than 25 µM; in the assay on A498 renal it was 0.0737 µM; in the assay with SNB-75 CNS it was more than 25 µM; in the assay with HCC-2998 colon it was more than 25 µM; with COLO 205 colon it was 0.329 µM. The TGI in the assay on HCT-15 colon, in the assay on KM12 colon and with SR leukemia was more than 25 µM in each case.

Take `CN1CCN(CCCOc2cccc3nc(Nc4ccc(F)c(F)c4)ccc23)CC1`: the GI50 in the assay on MDA-MB-231 breast was 0.937 µM; in the assay on CAKI-1 renal it was 4.45 µM; in the assay with M14 melanoma, 0.68 µM; in the assay on A498 renal, 5.65 µM; in the assay with SNB-75 CNS it was 3.92 µM; in the assay on HCC-2998 colon, 4.56 µM. The GI50 is 0.646 µM in the assay with COLO 205 colon, 0.956 µM in the assay on HCT-15 colon, 2.35 µM with KM12 colon and 0.87 µM in the assay on SR leukemia. Further, the TGI came out at 3.38 µM in the assay with MDA-MB-231 breast; 9.35 µM in the assay with CAKI-1 renal; 1.49 µM in the assay with M14 melanoma; 11.6 µM in the assay on A498 renal; 9.5 µM in the assay on SNB-75 CNS; 9.08 µM in the assay with HCC-2998 colon. Also, the TGI in the assay on COLO 205 colon was determined as 1.33 µM; in the assay on HCT-15 colon, 3.42 µM; with KM12 colon, 7.78 µM; in the assay on SR leukemia, 4.07 µM.

On to `Nc1ccccc1C(=O)NC(=O)Nc1ccc(Oc2ncc(Br)cn2)c(Cl)c1`, for which the TGI is 2.76 µM with MDA-MB-231 breast; 1.72 µM in the assay with CAKI-1 renal; 2.08 µM in the assay on M14 melanoma; 1.21 µM with A498 renal; 0.19 µM in the assay with HCC-2998 colon; 0.421 µM with COLO 205 colon. Besides, the TGI with HCT-15 colon is 22.6 µM; in the assay with KM12 colon, 9.56 µM; in the assay with SR leukemia, 1.5 µM. Also, the GI50 with SNB-75 CNS was 0.0035 µM.

`Cn1cncc1-c1c(F)cncc1NC(=O)c1c(N)nn2cc(F)cnc12`: the GI50 with MDA-MB-231 breast is 4.72 µM; in the assay with CAKI-1 renal, 1.45 µM; in the assay on M14 melanoma, 0.231 µM; with A498 renal it was 0.526 µM; in the assay with SNB-75 CNS it was 6.5 µM; with HCC-2998 colon it was 0.0612 µM. The GI50 in the assay with COLO 205 colon was 5.68 µM; in the assay with HCT-15 colon it was 0.18 µM; with KM12 colon, 1.52 µM; with SR leukemia it was 0.206 µM. Besides, the TGI in the assay with MDA-MB-231 breast is more than 100 µM; in the assay on CAKI-1 renal, 21.7 µM; with M14 melanoma it was 91.4 µM; in the assay with A498 renal, 8.83 µM; in the assay with SNB-75 CNS, 48.6 µM; in the assay on HCC-2998 colon, more than 100 µM. Moreover, the TGI with COLO 205 colon was more than 100 µM; in the assay with HCT-15 colon, more than 100 µM; in the assay with KM12 colon, more than 100 µM; with SR leukemia, 2.54 µM.

On to `CCc1nc2cc(/C=C/C(=O)NO)ccc2c(=O)n1CCc1ccc(OC)cc1`, for which the GI50 in the assay with MDA-MB-231 breast was 2.31 µM; in the assay on CAKI-1 renal, 2.98 µM; with M14 melanoma it was 2.88 µM; in the assay on A498 renal it was 1.17 µM; in the assay with SNB-75 CNS, 2.62 µM; with HCC-2998 colon it was 4.06 µM. Besides, the GI50 with COLO 205 colon was 1.94 µM; with HCT-15 colon, 3.24 µM; in the assay on KM12 colon, 3.42 µM; in the assay on SR leukemia, 1.94 µM. Further, the TGI amounted to 7.66 µM in the assay on MDA-MB-231 breast; 10.7 µM in the assay with CAKI-1 renal; 10.4 µM with M14 melanoma; 3.39 µM in the assay on A498 renal; 33.2 µM with SNB-75 CNS; 62.1 µM with HCC-2998 colon. Also, the TGI in the assay on COLO 205 colon is 5.13 µM; in the assay on HCT-15 colon, more than 100 µM; in the assay on KM12 colon, more than 100 µM; with SR leukemia, more than 100 µM.

On to `Cc1c(C)c2c(c(C)c1OCC(=O)O)CC[C@@](C)(CCC[C@@H](C)CCC[C@@H](C)CCCC(C)C)O2`, for which the GI50 is 95.2 µM in the assay on MDA-MB-231 breast; 76.7 µM in the assay with CAKI-1 renal; 41.1 µM with M14 melanoma; 94.9 µM in the assay on A498 renal; 69.9 µM with SNB-75 CNS; 102 µM in the assay with HCC-2998 colon. The GI50 in the assay on COLO 205 colon was 53.4 µM; in the assay with HCT-15 colon it was 40.8 µM; in the assay on KM12 colon, 63.3 µM; in the assay on SR leukemia it was 50.4 µM. Besides, the TGI is 218 µM in the assay with MDA-MB-231 breast; 151 µM in the assay on CAKI-1 renal; 114 µM with M14 melanoma; 167 µM in the assay with A498 renal; 141 µM in the assay with SNB-75 CNS; 224 µM with HCC-2998 colon. Moreover, the TGI in the assay on COLO 205 colon came to 144 µM; with HCT-15 colon, 120 µM; with KM12 colon, 173 µM; in the assay with SR leukemia, 500 µM.

`COc1ccc(-c2n[nH]nc2-c2cc(OC)c3c(c2)OCO3)cc1`: the GI50 was 0.0409 µM with MDA-MB-231 breast; 0.0237 µM with CAKI-1 renal; 0.014 µM in the assay with M14 melanoma; less than 0.01 µM in the assay with A498 renal; 0.0128 µM in the assay on SNB-75 CNS; 0.069 µM with HCC-2998 colon. Besides, the GI50 was 0.206 µM with COLO 205 colon, less than 0.01 µM in the assay with HCT-15 colon, less than 0.015 µM with KM12 colon and less than 0.01 µM in the assay on SR leukemia. The TGI with MDA-MB-231 breast was 0.437 µM; in the assay on CAKI-1 renal, 58.5 µM; in the assay on M14 melanoma it was 10.5 µM; in the assay with A498 renal it was 0.0693 µM; with SNB-75 CNS, 1.72 µM; in the assay on HCC-2998 colon, 2.4 µM. The TGI in the assay with COLO 205 colon was 1.17 µM; with HCT-15 colon, more than 36.2 µM; in the assay on KM12 colon, 8.27 µM; in the assay with SR leukemia, 17.5 µM.
